Usually EC50 stands for the concentration giving half of the maximal effect. As usually defined, the IC50 is the concentration at which inhibition is half-maximal. Low readings indicate greater potency, high ones weaker potency.

A value given as a limit tells only on which side of the number the result lay.

From PMC8994274, “A proteolysis-targeting chimera molecule selectively degrades ENL and inhibits malignant gene expression and tumor growth” (Journal of Hematology & Oncology, 2022) come the findings set out here.

In series [1] the test system is AF9, AFF4, cyclin-T1 and H3K79me2. The series is described as follows: ChIP-qPCR, AF9, AFF4, cyclin-T1 and H3K79me2 at gene promoters of Myc and HoxA9. It is filed as cell-based. The settings on record: MV4;11 cells, 500 nM, 4 days. On the procedure:
Chromatin immunoprecipitation (ChIP) followed by qPCR was used to further probe the activity of compound 1 in the gene promoters of Myc and HoxA9, two characteristic MLL1 target genes.
Upon treatment with a compound for 4 days, 10^7 MV4;11 cells were cross-linked with 1% formaldehyde at room temperature for 10 min, followed by the addition of 125 mM glycine. Cells were lysed with nuclear lysis buffer and sonicated to ~ 100–1000 bp fragments, which was incubated at 4 °C overnight with an antibody and IgG (C15410206, Diagenode). Protein A/G Magnetic Beads (10 µL, Novus Biologicals) were added and incubated for 2 h. The beads were washed 3 × with RIPA buffer and 2 × with TE buffer. DNA on the beads was eluted for 2 h at 68 °C in 100 μL of an elution buffer (20 mM Tris pH 7.5, 5 mM EDTA, 50 mM NaCl, 1% SDS, 50 μg/mL proteinase K) (2 ×), and purified using a ChIP DNA Clean & Concentrator kit (Novus Biologicals). qPCR was done using the method described above.
In general terms: Real-time PCR tracks product formation cycle by cycle.

The test system of series [2] is blood and solid tumor cells. Briefly: Antiproliferation assay, ranges given over several cell lines. It is filed as cell-based. The settings on record: AML Kasumi-1, myeloma RPMI-8226 and U266; read-out: EC50 against Kasumi-1, RPMI-8226 and U266 cells (range over cell lines).
Experimental: (§3) Proliferation inhibition assays for suspension blood cancer cells were performed using an XTT assay kit (Biotium), following our previous methods [22]. EC50 values were determined using Prism 5 and from at least three independent experiments.
Series [3] concerns Molm-13 cells. Briefly: Annexin V apoptosis assay in Molm-13 cells. Type of series: cell-based. The note with it: 7 days. On the procedure: (§1) Treatment of Molm-13 cells with compound 1 for 7 days at 1 and 3 µM caused significant apoptosis of 22.7% and 67.6%, respectively (Fig. 6c and Additional file 1: Fig. S6).
(§2) For Annexin V apoptosis assay, 10^5 cells/mL were incubated with increasing concentrations of a compound for 7 days. Apoptosis was determined using the FITC Annexin V Apoptosis Detection Kit I (BD Bioscience) using the manufacturer’s protocol. For other FACS assays, cells were labeled with fluorochrome-conjugated monoclonal antibodies against human CD14 and CD11b (BD Biosciences) according to the manufacturer’s recommendation. Cells were analyzed using a FACS Calibur (BD Biosciences/Applied Biosystems), and data were processed using the program Flowjo (version7.6.5).

Series [4] concerns Molm-13 cells. The series is described as follows: Cell differentiation (CD14, CD11b, FACS) in Molm-13 cells. It is filed as cell-based, human. The settings on record: 3 μM for 5 days. On the procedure: as §1, §2
Another series relates to Molm-13 leukemia. The series is described as follows: Subcutaneous Molm-13 leukemia xenograft in NOD-SCID mice. It is filed as in vivo. On the procedure: In vivo antitumor activity of compound 1 was evaluated in a commonly used mouse model of Molm-13 leukemia. First, in vivo toxicity was assessed in C57BL/6 mice. […] Next, 10^6 Molm-13 cells were injected subcutaneously into NOD-SCID mice, which developed palpable tumors in ~ 1 week and grew rapidly.
All of the mouse studies were conducted in strict compliance with an […] protocol. NOD-SCID mice (6–8 weeks old, from Jackson lab) were obtained and maintained under specific pathogen-free conditions. 10^6 Molm13 cells in medical grade saline were inoculated subcutaneously, and palpable tumors (2–3 mm in diameter) were developed in ~ 1 week. Mice were treated with compound 1 (30 mg/kg/day for 13 days) in saline (0.1 mL) administered intraperitoneally. Tumors were measured every day and estimated by using the formula a × b^2/2.

The subject of another series is Hela cells. The series is described as follows: Antiproliferation assay, Hela. The settings on record: Homo sapiens, 168 h, read-out: Antiproliferative activity, EC50, Hela.
Another series deals with Kasumi-1 cells. Briefly: Antiproliferation assay (XTT), Kasumi-1. The note with it: Homo sapiens, Kasumi 1, 168 h, read-out: Antiproliferative activity, EC50, Kasumi-1. Background: Tetrazolium dyes change colour on reduction, which living cells bring about.
A further series addresses T1, ENL (Homo sapiens, UniProt Q03111).
T1 sequence (Q03111 1-559): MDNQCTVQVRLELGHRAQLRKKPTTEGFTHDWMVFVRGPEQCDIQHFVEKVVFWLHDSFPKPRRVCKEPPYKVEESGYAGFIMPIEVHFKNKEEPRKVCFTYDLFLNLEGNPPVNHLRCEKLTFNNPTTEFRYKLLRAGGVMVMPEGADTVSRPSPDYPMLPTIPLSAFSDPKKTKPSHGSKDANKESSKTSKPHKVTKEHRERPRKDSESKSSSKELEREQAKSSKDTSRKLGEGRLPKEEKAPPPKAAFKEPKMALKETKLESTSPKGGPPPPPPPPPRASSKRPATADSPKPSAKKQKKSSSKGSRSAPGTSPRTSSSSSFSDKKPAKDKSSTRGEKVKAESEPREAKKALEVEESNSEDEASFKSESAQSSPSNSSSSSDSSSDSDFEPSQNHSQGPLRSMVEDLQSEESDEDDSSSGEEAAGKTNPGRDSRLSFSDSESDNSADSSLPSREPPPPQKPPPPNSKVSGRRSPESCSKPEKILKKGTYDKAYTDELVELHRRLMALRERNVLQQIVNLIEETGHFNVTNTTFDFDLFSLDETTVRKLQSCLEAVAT
Briefly: ENL in nucleus and cytoplasm of MV4;11 cells (Western blot). The arrangement: endogenous in cells; host or cells: MV4;11. It is filed as cell-based. The note with it: 4 days. As to the method:
Upon treatment of MV4;11 cells with these compounds for 4 days, cytoplasmic and nuclear proteins were separated and subjected to SDS-PAGE/Western blot.
3 × 10^6 cells/well were treated with increasing concentrations of a compound for 1 day, and whole proteins were extracted. Equal amounts of proteins were separated on SDS-PAGE and transferred to PVDF membranes. The blots were probed with primary antibodies, followed by anti-rabbit IgG (Thermo Scientific) secondary antibodies.
A general note: Immunoblotting shows a protein as a band on a membrane.

For another series, the target named is T2, ENL YEATS (Homo sapiens, UniProt Q03111).
T2 sequence (Q03111 1-138): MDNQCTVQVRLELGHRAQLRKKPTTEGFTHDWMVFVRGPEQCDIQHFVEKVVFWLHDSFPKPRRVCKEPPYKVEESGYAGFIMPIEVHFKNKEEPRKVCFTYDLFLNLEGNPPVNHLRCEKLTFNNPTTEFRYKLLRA

Text for ENL YEATS: cDNA for human ENL YEATS domain (1–138) was synthesized (by Genscript) and cloned into pET-28a vector.
AlphaScreen binding assay was developed using Perkin-Elmer AlphaScreen Histidine (Nickel Chelate) Detection Kit, following a reported protocol [39]. Data were imported into Prism (version 5.0), and IC50 values from 3 independent experiments with standard deviation were obtained by using a standard dose–response curve fitting.
Experimental for Kasumi-1 cells: as §3

With `C[C@H]1CCCN1Cc1nc2cc(NC(=O)c3ccc4c(cnn4CCCCCCCCNc4cccc5c4C(=O)N(C4CCC(=O)NC4=O)C5=O)c3)ccc2[nH]1` (some centres unmarked) [Compound 1], the “AF9, AFF4, cyclin-T1 and H3K79me2 at gene promoters of Myc and HoxA9” value in series [1] is recorded as “did not significantly lower down”. In addition, the EC50 in [2] was 1100 to 4100 nM; in the series on Hela cells, over 50000 nM; in the series on Kasumi-1 cells it was 1100 ± 30 nM. Also, the Apoptosis is at most 5% in the series with Molm-13 cells [3] (0.5 μM), 22.7% in the series on Molm-13 cells [3] (1 µM) and 67.6% with Molm-13 cells [3] (3 µM). Besides, in the series with Molm-13 cells [4], the “Cell differentiation (cells with high levels of CD14 and CD11b)” value was “induced cell differentiation”. Besides, the Body weight result with Molm-13 leukemia (30 mg/kg/day for Day 3–15) is “did not cause significant weight losses”. Besides, in the series on Molm-13 leukemia (30 mg/kg/day for Day 3–15, intraperitoneally), the Tumor growth result is “significantly inhibited tumor growth”. In addition, the Animal survival result with Molm-13 leukemia (30 mg/kg/day for Day 3–15, intraperitoneally, p < 0.01, 30 mg/kg/day) is listed as “prolonged animal survivals”. For the same compound, the “ENL level in the cytoplasmic extract” value at ENL is “significantly reduced”. The “ENL level in the nucleus” value at ENL (compound 1 at 500 nM) is “almost depleted”. This compound registered a concentration for half-maximal inhibition (IC50) on ENL YEATS of 170 nM.
